This passage reports inhibition of growth results from ChEMBL document CHEMBL3882245, “Novel aminopyridine derivatives having aurora a selective inhibitory action” (2008).

The nature of the test: Cytotoxicity against human HeLaS3 cells assessed as cell growth inhibition at 0.3 nM after 3 days by WST-8 assay. Type of test: functional. The conditions noted are these: HeLa S3, 72 h, read-out: GI. On the technique in general: Tetrazolium assays rely on reduction of a dye to a coloured formazan, in cell work by metabolically active cells.

On to `CC(=O)O[C@@]12CO[C@@H]1C[C@H](O)[C@@]1(C)C(=O)[C@H](O)C3=C(C)[C@@H](OC(=O)[C@H](O)[C@@H](NC(=O)OC(C)(C)C)c4ccccc4)C[C@@](O)([C@@H](OC(=O)c4ccccc4)[C@H]21)C3(C)C` [DOCETAXEL ANHYDROUS], for which the inhibition of growth at 0.0003 µM fell in the range of 25.6 to 53.4%.
